Among the data in ChEMBL document CHEMBL5608234, “Heat Shock Protein 90 Interactome-Mediated Proteolysis Targeting Chimera (HIM-PROTAC) Degrading Glutathione Peroxidase 4 to Trigger Ferroptosis” (J Med Chem, 2024) are Activity values, retold here.

Format in all cases: cell-based
Test [1] deals with HT-1080. Put plainly: HIM-PROTAC activity at GPX4/HSP90/E3 ligase in human HT-1080 cells assessed as GPX4 degradation at 1 uM measured 24 hrs post compound washout by Western blotting analysis. For orientation: Immunoblotting shows a protein as a band on a membrane.
Test [2] concerns HT-1080. Put plainly: HIM-PROTAC activity at GPX4/HSP90/E3 ligase in human HT-1080 cells assessed as GPX4 degradation at 0.3 to 1 uM preincubated with MLN4924 for 2 hrs followed by compound addition and measured after 24 hrs by Western blotting analysis. The settings on record: dose 0.3-1 µM.
For test [3], the system named is HT-1080. Put plainly: HIM-PROTAC activity at GPX4/HSP90/E3 ligase in HSP90-knockdown human HT-1080 cells assessed as GPX4 degradation at 1 uM preincubated with KUNB-31 for 3 hrs followed by compound addition and measured after 24 hrs by Western blotting analysis.

Each structure is given as a SMILES string. Activity calls are given as the source filed them. The calls are words filed in the database; no cut-off is given here.

In the case of `COc1c(C)cnc(Cn2cnc3c(NCCOCCOCCOCCn4cc(COc5ccc(N(C(=O)CCl)C(C(=O)NCCc6ccccc6)c6cccs6)cc5Cl)nn4)nc(N)nc32)c1C` (stereo not drawn), the outcome in the test with HT-1080 [1] was Active.
On to `COc1c(C)cnc(Cn2cnc3c(NCCC4CCN(C(=O)Cn5cc(COc6ccc(N(C(=O)CCl)C(C(=O)NCCc7ccccc7)c7cccs7)cc6Cl)nn5)CC4)nc(N)nc32)c1C` (stereo not drawn), for which the result in the test on HT-1080 [2] and in the test with HT-1080 [3] was inactive.
